Experimental data as given in patent US11541101B1, “LEMD3 antagonizes TGF-beta-driven Smad2/3 transcription in a stiffness-dependent fashion in both the nucleus and cytosol” (University of Virginia Patent Foundation, priority 2018, dated 2023).
Peptide text beside a SMILES is read from it. * marks the point of attachment. Cbz = O=C(OCc1ccccc1)*

Columns and labels:
[1] = test system: LEMD3; test: Recombinant LEMD3 fragment western blots (FLAG and V5 tags); assay type: cell-based, human; settings: pFLAG-LEMD3-V5 transfected cells, inhibitor treatment, FIG. 4E
Description: Western Blotting—For non-phosphoprotein western blots: cell lysates from tissue culture plastic or from 2 or 25 kPa, […] Petrisoft dishes (Matrigen, Brea, Calif.) were either: harvested directly in 4× protein loading buffer (Licor, Lincoln, Nebr.) supplemented with protease and phosphatase in-hibitors (#A32959, ThermoFisher, Waltham, Mass.) according to the manufacturer's instructions; or, processed with the NE-PER compartment isolation kit (ThermoFisher, Waltham, Mass.) according to the manufacturer's instructions. Lysates were treated with 0.3 μL of benzonuclease (ThermoFisher, Waltham, Mass.) for 15 minutes at room temperature with vigorous shaking. Samples were heated to 95 C for 5 minutes and run on a 4-12% Bis-Tris gel in 1×MES buffer and run for 70 minutes at 150V. The gel was then transferred to a nitro-cellulose membrane using the XCell Blot Module (ThermoFisher, Waltham, Mass.) at 25V for 65 min-utes. Membranes were air-dried for an hour, blocked with 5% non-fat milk in 1×PBS for an hour at room temperature, and then incubated with primary antibodies as described in Table 3 in 1×PBS-T with 1% milk for 16-24 hours at 4 C. Near-IR or HRP conjugated secondaries as described in Table 4 were then incubated with the blot and imaged subsequently on either an Odyssey CLx system for near-IR dyes (Licor, Lincoln, Nebr.) or a ChemiDoc MP system (Bio-Rad, Hercules, Calif.) with SuperSignal West Femto reagents (ThermoFisher, Waltham, Mass.) for HRP secondaries according to the manufacturer's instructions. Band analysis was performed using the associated Licor or Biorad software.
For recombinant LEMD3 western blots: Two samples of HFFs were prepared and electro-porated as above and plated onto each plastic or hydrogel surface for 12 hours (protease inhibitor experiments) or 24 hours (LEMD3 fragment abundance and deletion mutant experiments) before harvesting. qPCR—RNA was isolated from cultured cells using RNEasy Plus Mini kits (Qiagen, Hilden, Germany) according to the manufacturer's instructions. cDNA libraries were constructed using RT2 First Strand kit (Qiagen, Hilden, Germany) according to the manufacturer's instruction. 25 μL qPCR reactions were prepared using SYBR Green Master Mix (ThermoFisher, Waltham, Mass.) with 250 nM primers, listed in Table 3 and 10 ng input cDNA. Reactions were carried out on a StepOnePlus (ThermoFisher, Waltham, Mass.) for 40 cycles. Melt curves were visually inspected after each run to confirm a single, defined peak in the derivated intensity plot. Data from each run was imported into LinRegPCR, which performed baseline correction and measured PCR efficiency by amplicon group as described in (81). The relative number of transcripts was calculated by dividing the Cq threshold by the PCR efficiency for the reaction raised to the power of Cq, the cycle number at which the threshold is reached for a given target. For relative quantification be-tween conditions, LEMD3 transcripts were either: normalized for each condition to the mean of two reference genes, 18S and ACTB, if the samples were all from a single stiffness condition; or, normalized to 18S alone if substrate stiffness was an experimental condition.

[2] = pulmonary fibrosis; cited from earlier work
[3] = test system: Smad-driven luciferase; test: Smad-driven luciferase assay on substrates of varying stiffness; assay type: cell-based, human
Method: Smad-Driven Luciferase Assays—HFFs were transfected with Cignal Lenti Reporter virus (Qiagen, Hilden, Germany) with a MOI of 40 and subsequently selected using 400 ng/mL puromycin until untransduced HFFs died. Stably transfected HFFs, with or without additional LEMD3-focused genetic treatments as described above, were plated at 10,000 cells/well on a HTS plate (Matrigen, Brea, Calif.) containing glass surfaces and polyacrylamide gels, which ranged in stiffness from 0.2 kPa to 50 kPa, all functionalized with 10 μg/mL plasma-purified human fibronectin according to the manufacturer's instruction. Cells adhered to the surfaces for 4 hours in serum-free DMEM supplemented with 1% BSA and 1% penicillin/streptomycin. Media was then supplemented with the desired amounts of TGFβ and, when applicable, with cytoskeletal agents as described in the results. HFFs were then incubated for 16 hours at 37 C before the luciferase re-action. Wells were supplemented to 2 mM VivoGlo d-luciferin (Promega, Madison, Wis.) using a plate reader controlled auto-injector system and light production was subsequently quantified every 5 minutes for 30 minutes on a Synergy H4 plate reader (BioTek, Winooski, Vt.). The raw luciferase signal was the median intensity measured over this timecourse minus the intensity from luciferase-transfected cells not treated with TGFβ to account for any TGFβ elaborated and activated by the cells in situ. Cells were then fixed with 4% paraformaldehyde, permeabilized with 0.1% Triton X-100, and then stained with 1:10,000 Hoechst 33342 in 1×PBS for 30 minutes at room temperature (ThermoFisher, Waltham, Mass.). The raw luciferase signal was then normalized to the nuclear signal, which was inside a linear standard curve form cells plated on glass and on polyacrylamide within each plate. Data for each condition was then fit to a three-parameter logistic equation using a least-squares minimization fit in Prism (Graph-Pad, La Jolla, Calif.). […] Otherwise, the trends across the maximal luciferase signal (“Top” variable from the model) or the mid-transition point observed between “Bottom” and “Top” signals (“EC50” variable from the model, called “transition point” in text), were statistically compared using an ANOVA with “Test for Trends,” which restricts the hypothesis testing to a particular order of the data-sets (e.g. max luciferase signal as a function of increasing TGFβ dose or transition point as a function of increased LEMD3 expression). Each data point represents at least three biological replicates.

[4] = test system: LEMD3-Smad2/3 complexes; test: LEMD3-Smad2/3 proximity ligation assay (PLA); assay type: cell-based, human
Method: In vitro PLA: Protein-protein PLA was per-formed with antibody pairs listed in Table 4 as described in (42) with the following modifications: cells were plated on FN-coated glass or hydrogels (Matrigen, Brea, Calif.). All primary antibody in-cubations were performed for 16-24 hours at 4 C and cells were counter-stained with 1:40 phalloidin-488 or phalloidin-546 in 1×PBS for 30 minutes at room temperature and/or further processed for IF imaging using the procedure recommended in Sigma's PLA Resource Center. For all recombinant LEMD3 and C-terminal fragment experiments, HFFs were electroporated as above and allowed to culture for 24 hours on 10 μg/mL fibronectin coated glass or hydrogels before fixation. For LEMD3-phospho-Smad2/3, LEMD3-Smad2/3+TGFβ and for Smad2/3-Smad4 PLA assays: cells were treated 90 minutes before fixation with 50 μg/mL for LEMD3- and CTF-Smad2/3 assays, 100 μg/mL TGFβ for LEMD3-phospho-Smad2/3 experiments and 500 μg/mL TGFβ for Smad2/3-Smad4 experiments. For FLAG post-staining of PLA processed tissues, cells were blocked with unlabelled AffiniPure donkey anti-rabbit antibodies (Jackson ImmunoResearch, West Grove, Pa.) at a 1:10 dilution in 1×PBS-T at room temperature for 1 hour before further IF processing with 1:1000 rabbit anti-FLAG (#F7425, Sigma-Aldrich, Darmstadt, Germany) for 1 hour in PBS-T at room temperature. Following three washes with PBS-T for 5 minutes, each sample was stained with 1:500 goat anti-rabbit 546 in PBS-T for 1 hour at room temperature, washed again and then counter-stained as above. For V5 post-staining of PLA processed samples, cells were incubated with 1:200 647 labelled anti-V5 antibody (R&D Systems, Minneapolis, Minn.) diluted in PBS-T at room tem-perature for 1 hour before washing three times in PBS-T for 5 minutes each and then counter-stained as above. Imaging and analysis were performed as described for high-resolution ex vivo PLA signals except that no tissue autofluorescence signal was measured or needed to be subtracted and, when appro-priate, other IF signal (e.g. FLAG) were measured in parallel. For cells on Matrigen HTS plates (FIGS. 2c & 2d), the confluence of cells prevented identifying individual cell boundaries. Instead the PLA signal was quantified as the PLA volume divided by the nuclear intensity for each image. Each data point represents at least 3 unique surfaces with at least 12 cells measured per surface. For Smad2/3-Smad4 experiments, only two independent hydrogels were analyzed for the “CTF 500 μg/mL” and “Neon 500 μg/mL” groups due to loss of hydrogels during processing. Each bar in FIG. 5D represents the mean with standard error of the mean for all the cells analyzed from that condition.

[5] = test system: LEMD3-phospho-Smad2/3 interactions; test: LEMD3-phospho-Smad2/3 PLA; assay type: cell-based, human; settings: 100 μg/mL, HFFs on glass, vs untreated fibroblasts, p=0.0333
Method: (§1) In vitro PLA: Protein-protein PLA was per-formed with antibody pairs listed in Table 4 as described in (42) with the following modifications: cells were plated on FN-coated glass or hydrogels (Matrigen, Brea, Calif.). All primary antibody in-cubations were performed for 16-24 hours at 4 C and cells were counter-stained with 1:40 phalloidin-488 or phalloidin-546 in 1×PBS for 30 minutes at room temperature and/or further processed for IF imaging using the procedure recommended in Sigma's PLA Resource Center. […] Imaging and analysis were performed as described for high-resolution ex vivo PLA signals except that no tissue autofluorescence signal was measured or needed to be subtracted and, when appro-priate, other IF signal (e.g. FLAG) were measured in parallel. […] Instead the PLA signal was quantified as the PLA volume divided by the nuclear intensity for each image. Each data point represents at least 3 unique surfaces with at least 12 cells measured per surface. For Smad2/3-Smad4 experiments, only two independent hydrogels were analyzed for the “CTF 500 μg/mL” and “Neon 500 μg/mL” groups due to loss of hydrogels during processing. Each bar in FIG. 5D represents the mean with standard error of the mean for all the cells analyzed from that condition.

[6] = test system: Smad2/3; test: V5-Smad2/3 PLA with recombinant LEMD3 / CTF; assay type: cell-based, human; settings: 50 μg/mL, 1 kPa or 25 kPa substrates, p=0.98 and p=0.99
Method: as §1

[7] = test system: Smad3 phosphorylation; test: phospho-Smad3 to total Smad3 ratio by western blot; assay type: cell-based, human; settings: 100 μg/mL for 90 minutes, relative to untreated HFFs, p=0.0506
[8] = test system: Smad2/3-Smad4 complexes; test: Smad2/3-Smad4 PLA; assay type: cell-based, human; settings: 500 μg/mL, HFFs on 1 kPa hydrogels, relative to untreated HFFs, p=0.001
Method: as §1

[9] = 10 μM, relative to HFFs treated with TGFβ alone, FIG. 1D

For `CNC(=O)C(CCc1ccccc1)NC(=O)C(CC(=O)NO)CC(C)C` (stereo not drawn) [MMPi], the “85 kDa V5 fragment abundance” value [1] was “potentiated”.
For `Cc1ccc(=O)n(-c2ccccc2)c1` [Pirfenidone], the disease progression [2] is listed as “slowing of disease progression”.
With `O=c1oc(Cl)c(Cl)c2ccccc12` [DCI, 3,4 dichloroisocoumarin] the “60 kDa FLAG fragment relative to full length” value [1] was “reduced”.
With `Cc1ccc2c(c1)C(=O)C1(O)CCN(c3ccccc3)C1=N2` (stereo not drawn) [blebbistatin, Blebbistatin] the maximal luminescence [3, 9] was “nor increase the maximal luminescence” and the transition point [3, 9] was “did not significantly shift”.
In the case of `CC[C@H](CO)Nc1nc(NCc2ccccc2)c2ncn(C(C)C)c2n1` [roscovitine], the “46 kDa V5 fragment abundance” value [1] is reported as “significantly increasing” and the “60 kDa FLAG fragment relative to full length” value [1] is reported as “significantly reducing”.
For `C/C1=C\[C@H](C)C[C@H](C)OC(=O)C[C@H](c2ccc(O)cc2)NC(=O)[C@@H](Cc2c(Br)[nH]c3ccccc23)N(C)C(=O)[C@H](C)NC(=O)[C@@H](C)C1` [jasplakinolide, Jasplakinolide], the “LEMD3-Smad2/3 interactions, total” value ([4]; 100 nM and 200 nM for 2 hours, 1 kPa hydrogels, vs DMSO p<0.0001) was “dose-dependent decrease”, the “LEMD3-Smad2/3 complex formation, cytoplasm” value ([4]; 100 nM and 200 nM, 1 kPa hydrogels, vs DMSO p<0.0001) was “Significant reductions” and the “LEMD3-Smad2/3 complex formation, nucleus” value ([4]; 100 nM p=0.0466, 200 nM p=0.002 vs DMSO, 1 kPa hydrogels) was “Significant reductions”.
For `CC(C)C[C@@H](C=O)NC(=O)[C@H](CC(C)C)NC(=O)[C@H](CC(C)C)NC(=O)OCc1ccccc1` [MG-132] (Cbz-Leu-Leu-Leu-aldehyde), the “60 kDa FLAG fragment relative to full length” value [1] was “also reduced”.
For `CCOC(=O)[C@H]1O[C@@H]1C(=O)N[C@@H](CC(C)C)C(=O)NCCC(C)C` [E64d, E-64D], the “85 kDa V5 fragment abundance” value [1] was “potentiated”.
With `C=C1[C@@H](C)[C@H]2[C@H](Cc3ccccc3)NC(=O)[C@]23[C@H](OC(C)=O)/C=C/[C@@](C)(O)C(=O)[C@@H](C)C/C=C/[C@H]3[C@@H]1O` [cytochalasin D, Cytochalasin D] the “luminescent profile over increasing ECM stiffness” value ([3]; 2 μM, FIG. 1D, data did not converge to a sigmoidal model) was “low, flat luminescent profile”, the “total frequency of LEMD3-Smad2/3 complexes” value ([4]; 2 μM for 90 minutes, fibroblasts on glass, p=0.0089) was “increase” and the “frequency of LEMD3-Smad2/3 complexes, cytosolic compartment” value ([4]; 2 μM for 90 minutes, glass, p=0.0871) was “also increased”. For the same compound, the “frequency of LEMD3-Smad2/3 complexes, nuclear compartment” value ([4]; 2 μM for 90 minutes, glass, p=0.5657) was “also increased”.
In the case of “TGFβ: Recombinant human TGF-β, R&D Systems 240-B”, the “TGFβ dose-response of luminescence” value ([3]; HFFs on stiff substrates, p<0.0001, FIG. 1B) is reported as “increasing luminescence with increasing TGFβ dose”, the “shift of the sigmoid transition point with increasing pg/mL doses” value ([3]; HFFs, p=0.07, FIG. 1B) is reported as “shift the transition point of the sigmoid towards softer substrates” and the “stiffness at which transition points occurred” value ([3]; pg/mL dose-range of TGFβ) is reported as 1-4 kPa. The LEMD3-phospho-Smad2/3 interactions [5] was “significantly higher”, the “CTF-Smad2/3 interaction frequency with TGFβ dosing” value [6] was “did not significantly vary” and the “ratio of phospho-Smad3 to total Smad3” value [7] was “increased the ratio of phospho-Smad3 to total Smad3”. For the same compound, the “LEMD3-Smad2/3 interactions with TGFβ dosing” value ([4]; 50 μg/mL, 1 kPa and 25 kPa hydrogels) was “unperturbed by TGFβ dosing” and the Smad2/3-Smad4 complexes [8] was “increase”.
